Data from patent US4536510A, “Method of antagonizing the effects of thromboxane” (Smith Kline Beckman Corporation, priority 1983, dated 1985).
Read-outs that look alike come from different tables or passages of the source. One block for each molecule: values may come before it.

Legend:
[1] = test system: canine bronchoconstriction induced by U-44069; assay: Protection in a drug-induced (U-44069) canine bronchospasm; assay type: in vivo, mongrel dogs; conditions: for Decrease in ability of lungs to expand easily / Increase in resistance to movement of air into the lungs: anesthetized dogs
Protocol: Bronchopulmonary responses to these agents were measured by computer analyses in 5 spontaneously breathing, anesthetized mongrel dogs. In a dose range of 0.3-3.0 μg/kg i.v., the endoperoxide analog produced dose-related alterations in pulmonary airway resistance, dynamic lung compliance, expiratory airflow rate, tidal volume and respiratory frequency. […] Inhibition by Compound I occurred in all pulmonary parameters calculated.

[2] = test system: human platelet aggregation; assay: Inhibition of human platelet aggregation in platelet-rich plasma; assay type: cell-based
Protocol: Platelet-rich plasma (PRP) and platelet-poor plasma (PPP) are prepared from citrated blood of drug-free human volunteers and are stored at room temperature for at least 30 minutes before use. Each PRP sample is preincubated two minutes at 37° C. prior to addition of N,N-bis[7-(3-chlorobenzeneaminosulfonyl)-1,2,3,4-tetrahydroisoquinolyl]disulfonylimide (Compound I) or agonists; Compound I is preincubated for 1 minute prior to addition of agonist. A dose response is determined for each agonist, and a concentration which gives a biphasic response is selected. Compounds are tested for inhibition of the response (control response) generated by this agonist concentration. A time is selected, and the height at which the various curves intersect this time line is measured and expressed in mm (a measure of light transmittance). The difference between the response of the control and that with inhibitor present is used to calculate percent inhibition. This value is plotted against inhibitor concentrations to determine the IC50 (the inhibitory concentration of Compound I which inhibits aggregation by 50%).

[3] = test system: isolated guinea pig tracheas; assay: Antagonism of contractions elicited by carbocyclic thromboxane A2 (CTA2), trachea; conditions: for contractile response (mg tension): trachea, Compound I 1×10^-5 M, 30 min
Protocol: (§1) Isolated guinea pig tracheas or paired lung parenchymal strips were attached via silk suture to force displacement transducers for recording changes in isometric tension. The tissues were equilibrated for one hour in modified Krebs' buffer at 37.5° C. and aerated with 95% O2 /5% CO2. Then, the tissues were equilibrated for 30 additional minutes with N,N'-bis[7-(3-chlorobenzeneaminosulfonyl)-1,2,3,4-tetrahydroisoquinolyl]disulfonylimide (Compound I) (1×10^-5 M) or buffer. Contraction of the tissues was then elicited by increasing the bath concentration of CTA2 in a cumulative fashion. The contractile responses were recorded as changes in mg tension.

[4] = test system: isolated guinea pig lung parenchymal strips; assay: Antagonism of contractions elicited by carbocyclic thromboxane A2 (CTA2), lung parenchymal strips; conditions: for contractile response (mg tension): lung parenchyma, Compound I 1×10^-5 M, 30 min
Protocol: as §1

[5] = pretreat with Compound I 5 mg/kg i.v., then U-44069 0.3 μg/kg i.v.
[6] = pretreat with Compound I 5 mg/kg i.v., then U-44069 1.0 μg/kg i.v.
[7] = pretreat with Compound I 5 mg/kg i.v., then U-44069 3.0 μg/kg i.v.

- IC50 ([2]; agonist A23187, human PRP, read-out: IC50, inhibition of secondary phase): 12 µM
- IC50 ([2]; agonist Platelet Activating Factor (PAF), human PRP, read-out: IC50, inhibition of secondary phase): 4.5 µM
- IC50 ([2]; agonist U-44069, human PRP, read-out: IC50, inhibition of primary phase): 2.5 µM
- IC50 ([2]; agonist U-44069, human PRP, read-out: IC50, inhibition of secondary phase): 1.7 µM
- IC50 ([2]; agonist arachidonic acid, human PRP, read-out: IC50, inhibition of primary phase): 19 µM
- IC50 ([2]; agonist collagen, human PRP, read-out: IC50, inhibition of primary phase): 10 µM
SMILES: O=S(=O)(Nc1cccc(Cl)c1)c1ccc2c(c1)CN(S(=O)(=O)NS(=O)(=O)N1CCc3ccc(S(=O)(=O)Nc4cccc(Cl)c4)cc3C1)CC2 [Compound I, N,N'-bis[7-(3-chlorobenzeneaminosulfonyl)-1,2,3,4-tetrahydroisoquinolyl]disulfonylimide]
- Decrease in ability of lungs to expand easily [1, 5]: 5%
- Increase in resistance to movement of air into the lungs [1, 5]: 14%
- Decrease in ability of lungs to expand easily [1, 6]: 13%
- Increase in resistance to movement of air into the lungs [1, 6]: 30%
- Decrease in ability of lungs to expand easily [1, 7]: 28%
- Increase in resistance to movement of air into the lungs [1, 7]: 56%
- effect on U-44069-induced bronchospasm (all pulmonary parameters) ([1]; pretreatment with Compound I 5.0 mg/kg i.v., shift to the right of the control U-44069 curve): inhibition of the bronchospasm
- response to challenge with reference contractile agonist ([3]; trachea receiving Compound I, 1 × 10^-5 M carbachol): responded normally
- contractile response (mg tension) ([3]; CTA2 10^-6 M, control 360.0 ± 89.8): 42.9 ± 20.2 mg tension
- contractile response (mg tension) ([3]; CTA2 10^-7 M, control 125.0 ± 33.5): 0 mg tension
- contractile response (mg tension) ([3]; CTA2 10^-8 M, control 0): 0 mg tension
- response to challenge with reference contractile agonist ([4]; lung parenchyma receiving Compound I, 1 × 10^-3 M histamine): responded normally
- contractile response (mg tension) ([4]; CTA2 10^-6 M, control 181.5 ± 23.3): 0 mg tension
- contractile response (mg tension) ([4]; CTA2 10^-7 M, control 103.5 ± 23.7): 0 mg tension
- contractile response (mg tension) ([4]; CTA2 10^-8 M, control 45.5 ± 11.4): 0 mg tension

SMILES: CCCCC[C@H](O)/C=C/[C@H]1[C@@H]2CO[C@@H](C2)[C@@H]1C/C=C\CCCC(=O)O [Compound U-44069, reference compound]
- Decrease in ability of lungs to expand easily ([1]; U-44069 alone 0.3 μg/kg i.v.): 28%
- Increase in resistance to movement of air into the lungs ([1]; U-44069 alone 0.3 μg/kg i.v.): 67%
- Decrease in ability of lungs to expand easily ([1]; U-44069 alone 1.0 μg/kg i.v.): 56%
- Increase in resistance to movement of air into the lungs ([1]; U-44069 alone 1.0 μg/kg i.v.): 333%
- Decrease in ability of lungs to expand easily ([1]; U-44069 alone 3.0 μg/kg i.v.): 70%
- Increase in resistance to movement of air into the lungs ([1]; U-44069 alone 3.0 μg/kg i.v.): 549%
